These results are taken from article PMC11868579 (Nature Communications, 2024).

The test system of series [1] is 4E-BP1 protein expression. Put plainly: Immunoblot of 4E-BP1 expression after dTAGV-1. The conditions noted are these: 1μM, control = 1.00. It is filed as cell-based, human. The protocol:
Supplementary Fig. 15 Expression of 4E-BP1 following dTAGV-1 treatment. a […]
16 hr treatment of 1 µM dTAGV-1 or DMSO control in H1299 parental cells and the […]
Vinculin was used as a loading control. Results are representative of 3 biological replicates. b Quantification of 4E-BP1 protein expression […]
was normalised to the DMSO negative control immunoblot (mean ± SEM of 3 […]
differences (p<0.05). Source data is located in the Supplementary Source Data file.
(1 picture or pasted object on this page, not shown here)
(In general: Immunoblotting shows a protein as a band on a membrane.)

The target in another series is T1, eIF4E W73F (Homo sapiens, UniProt P06730, W73F).
T1 construct: expressed in transfected cells; host or cells: H1299 eIF4E-dTAG clone C3-1, eIF4E-dTAG depleted with dTAG^V-1 before compound
T1 sequence (P06730 whole entry W73F): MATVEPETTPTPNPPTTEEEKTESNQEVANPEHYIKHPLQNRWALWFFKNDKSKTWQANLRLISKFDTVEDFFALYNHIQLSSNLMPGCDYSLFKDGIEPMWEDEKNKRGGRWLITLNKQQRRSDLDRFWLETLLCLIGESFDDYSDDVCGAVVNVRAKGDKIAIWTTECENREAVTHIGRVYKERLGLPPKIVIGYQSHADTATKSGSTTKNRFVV
The series is described as follows: CETSA in eIF4E-dTAG model expressing W73F eIF4E. The conditions noted are these: intact cells. In kind it is cell-based. The protocol:
(§1) Cells (1.5 × 10^6 cells) were plated into 75 cm^2 flasks and allowed to attached overnight. After treatment with compound 4 or 5 for 6 h, they were harvested by trypsinisation and washed x2 in ice cold PBS. Cells were resuspended in 1 ml of cold PBS supplemented with protease and phosphatase inhibitors (Fisher Scientific, cat#1861281). Resuspended cells were divided into 100 μl aliquots and centrifuged at 300 x g for 3 min at 4 °C. Following centrifugation, 75μl of supernatant was removed and cells resuspended in the remaining volume. Cell suspensions were heated at 40.9, 43.7, 48.1, 52.9, 57.6, 62.4, 67.2, 71.9, 76.3 and 79.1 °C for 3 mins followed by cooling at 20 °C for 3 min[25]. Suspensions were freeze-thawed twice using liquid nitrogen. Soluble fractions were separated from cell debris by centrifuging at 20,000 x g for 30 min at 4 °C. Samples were then analysed by Western Blot.
(§2) Supplementary Fig. 18. Comparison of compound 4 binding to wild-type or […]
(§3) Cells were treated with dTAGV-1 (1 μM) for 16 hr. Compound 4 (10 μM) or compound 5 (10 μM) was then added for 6 hrs.
(§4) Vi nculin was used for loading control. Blots are from one biological repeat. b […]
(§5) was used as loading control . c Cells were treated with dTAGV -1 (1 μM) for 16 hr.
(§6) Compound 4 (50 μM) or compound 5 (50 μM) was then added for 6 hrs. […]
(§7) following incubation at 48.1 °C. Vinculin was used for loaing control. All blots are […]

For another series, the target named is T2, eIF4E L85R (Homo sapiens, UniProt P06730, L85R).
T2 construct: expressed in transfected cells; host or cells: H1299 eIF4E-dTAG clone C3-1, eIF4E-dTAG depleted with dTAG^V-1 before compound
T2 sequence (P06730 whole entry L85R): as the sequence (P06730 whole entry W73F) above, with F73W, L85R counted along it
The series is described as follows: CETSA in eIF4E-dTAG model expressing L85R eIF4E. Particulars: intact cells. It is filed as cell-based. On the procedure:
as §1, §2, §3, §4, §5, §6, §7

Series [2] relates to cap-dependent and cap-independent (IRES) protein synthesis. Put plainly: Bicistronic protein synthesis reporter in HEK293 cells. In kind it is cell-based, human. Particulars: for Cap translation, Average / IRES, Average: HEK293, n=3; for Cap translation, Average: cap-dependent luciferase reporter; for IRES, Average: cap-independent luciferase driven by viral IRES. The protocol: Supplementary Fig. 10 Determination of the effects of compound 4 on protein synthesis and viability. a HEK293 cells were transfected with protein synthesis reporter expressing bicistonic mRNA with a cap-dependent luciferase reporter and a cap-independent luciferase driven by a viral IRES. Cells were treated with 1 or 10 µM […]
with compound 4 for 24 hr. […]
Source data is located in the Supplementary Source Data file
For orientation: Reporter assays use an easily measured gene product as a stand-in for the process of interest.

Another series deals with T3, full-length eIF4G:eIF4E (Homo sapiens, UniProt P06730).
T3 construct: endogenous in cells; host or cells: HeLa, SW620 or H1299 cells (lysates; intact H1299 cells in A13)
T3 sequence (P06730 2-217 limits assumed): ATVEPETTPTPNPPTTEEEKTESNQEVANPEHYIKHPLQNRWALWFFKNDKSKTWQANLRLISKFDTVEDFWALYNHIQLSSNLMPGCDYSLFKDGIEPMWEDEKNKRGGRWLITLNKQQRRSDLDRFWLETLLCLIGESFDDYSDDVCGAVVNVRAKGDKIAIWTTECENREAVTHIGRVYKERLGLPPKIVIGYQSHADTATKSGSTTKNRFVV
The series is described as follows: eIF4G:eIF4E binding, summary over cell line lysates. It is filed as biochemical. On the procedure: This assay uses plates with carbon electrodes and electro-chemiluminescent labels (SULFO-TAGs) that are conjugated to detection antibodies. When an electric current is applied to the plate electrodes the SULFO-TAG labels will emit light that is measured to quantify analytes in the sample. […] For measuring exogenously expressed FLAG-tagged-eIF4E, 96-well Multiarray SECTOR plates with carbon electrodes (MSD, cat#L15XB) were coated with 25 ul of 4 µg/ml anti-FLAG M2 (Sigma-aldrich, cat#F1804, RRID:AB_262044) in PBS for 1 hr at RT with shaking. The plates were washed with 3 ×150 µl/well MSD wash buffer (cat#R61AA-1; 0.2% Tween-20 in PBS), then blocked with 150 µl/well block buffer (MSD, cat# R93AA) for 1 h. […] The incubated plates were washed 4x in 150 µl in MSD wash buffer and were re-blocked by the addition of 25 μl of blocking buffer containing a 1:500 dilution of the secondary antibody and incubated for 1 hr at RT with rotational shaking. […] Plates were then washed again 4x in 150 µl in MSD wash buffer and 25 μl of a 1:50 dilution of Goat anti-rabbit Sulfo-Tag (MSD, Cat# R32AB-1) in MSD blocking buffer was added and the plates incubated for 1 h at RT with rotational shaking. After a final wash step, 150 μl Read Buffer T4X (MSD, Cat# R92-TC2) was added and the plate read using the MSD QuickPlex SQ 120 plate reader.

A further series deals with Caco-2 monolayer. Put plainly: Caco-2 permeability assay. It is filed as in vitro ADME. The protocol:
Caco-2 permeability Assay
The permeability of Compound 4 was assessed using the CacoReady system.
Compound 4 and control compounds (propranolol, antipyrine, and vinblastine) were incubated at a final concentration of 10 µM in duplicate to either the apical (180 µL) of the monolayer to measure apical to basolateral transport (A > B) across the cell barrier or to the basolateral side (750 µL) to measure the basolateral to apical transport (B > A). For A > B spiking, test and control compounds were diluted from 10 mM DMSO stocks to 10 µM in HBSS buffer with 100 mM CaCl2·2H2O, 50 mM MgCl2·5H2O, and 0.5 mg/mL lucifer yellow made to volume with sterile water (lucifer yellow was used to determine the integrity of the Caco-2 monolayer). For B > A compound spiking, test and control compounds were prepared as for the A > B solutions without the addition of lucifer yellow. Test and control compounds were incubated for 1 h at +37 °C in a highly humidified atmosphere of 95% air and 5% CO2. […]
On the technique in general: Caco-2 cells form a polarised layer with tight junctions and transporters.

Series [3] in a line: Aqueous kinetic solubility at pH 7.5 by qNMR. It is filed as physicochemical. Particulars: 50 mM HEPES, 100 mM NaCl, 1 mM TCEP. On the procedure: Measurement of aqueous kinetic solubility at pH 7.5
Solubility was measured in 50 mM HEPES, 100 mM NaCl (15% D2O, 85% H2O) in the presence of 1 mM TCEP at pH 7.5. Samples were prepared at 50 mM in DMSO-d6, diluted x 50 into buffer affording nominal concentrations of 1 mM and analysed by 1H quantitative NMR. Spectra were acquired at 300K in 5 mm tubes on a 400 MHz Bruker Avance III HD spectrometer equipped with a BBO-F probe using water suppression (presat/Watergate). A 5 mM sample of 4-hydroxybenzoic acid was used

On to `CC[C@H](C(=O)N1CCCC[C@H]1C(=O)O[C@H](CCc1ccc(OC)c(OC)c1)c1ccccc1OCC(=O)NCCCCCCC(=O)N[C@H](C(=O)N1C[C@H](O)C[C@H]1C(=O)N[C@@H](C)c1ccc(-c2scnc2C)cc1)C(C)(C)C)c1cc(OC)c(OC)c(OC)c1` [dTAG^V-1], for which the “Quantification of 4E-BP1 protein expression, Average” value in series [1] (H1299 cells) is given as 0.99; in series [1] (eIF4E dTAG C3-1 clone), 0.88.

What is called IC50 is the midpoint of a concentration-inhibition curve. Usually efflux ratio stands for a quotient of directional permeabilities that is used to spot active efflux. On to `CC[C@H](O[C@H](C)CO)c1ccc(-c2ccccc2F)cc1NCCO` [Compound 4], for which, on eIF4E W73F, the “thermal stabilisation of W73F eIF4E” value is “destabilised, rather than stabilised”. Further, the “thermal stabilisation of L85R eIF4E” value on eIF4E L85R was “showed evidence for compound 4 binding”. In series [2] (1μM), the “Cap translation, Average” value came to 87.46 and the “IRES, Average” value stood at 89.67. Also, in series [2] (10μM), the “Cap translation, Average” value turned out to be 74.14 and the “IRES, Average” value is given as 83.90. Further, the “inhibitory activity in dual reporter assay” value in series [2] (HEK293 cells, 1 or 10 µM, 24 hr) was “lacked inhibitory activity”. For the same molecule, the EC50 at full-length eIF4G:eIF4E (read-out: EC50s, eIF4G:eIF4E electro-chemiluminescent binding assay, three different cell line lysates) lay within 1400 to 2600 nM. Further, on full-length eIF4G:eIF4E (read-out: full-length eIF4G:eIF4E IC50, lysates and intact cell engagement assays), the IC50 is 1000 to 2000 nM. Further, the “permeability in Caco2 assay” value with Caco-2 monolayer is “good permeability”. The “Caco-2 permeability Papp (A-B)” value with Caco-2 monolayer (10 µM, 1 h) came out at 9 ×10⁻⁶ cm/s. Besides, in the series with Caco-2 monolayer (Caco2), the efflux ratio amounted to 1.5. Also, in series [3], the “Aqueous kinetic solubility (pH7.5)” value amounted to 400 µM.
